Assay results published in patent US20050196385A1, “Methods for producing gamma delta t cells” (Innate Pharama, priority 2002, published 2005).

System: gamma 9 delta 2 T cells
Assay: TNF release test after BrHPP stimulation
Type: cell-based, human
Details: for TNF alpha production (pg/ml) on 25,000 cells: 3 μM BrHPP, 24 hours, day 21; for Pg/ml of alpha TNF produced by 25 000 cells: cells formulated in HSA 4%, triplicate means
Method: Different tests were carried out on the cells obtained to evaluate their functional activity. In particular, said tests concerned the cytotoxic activity of the cells and their production of TNF. • Cytotoxicity test. For this test, the target cells were isotopically labelled with ^51Cr (10 μl of ^51Cr/1 million target cells in 24-well plates), then incubated for 1 hour at 37° C. The cells were distributed (in duplicate) at a rate of 3000 cells per well in RPMI/10% FCS (50 μl), and spontaneous and maximum release of ^51Cr were determined. Effector cells (gamma delta T cells of the invention) were then added (50 μl in RPMI/10% FCS) to each target, at the following effector/target (E/T) ratios: 30/1, 3/1, 0.3/1, and incubated for 3 to 4 hours at 37° C. Cytotoxic activity (lysis of target cells) was determined by measuring the released radioactivity on 25 μl of supernatant in a β plate counter. • TNF release test. Cells were washed twice in RPMI then cultured in 96-well plates in RPMI/10% FCS in the presence of 3 μM BrHPP for 24 hours. TNF was assayed in the supernatant using the Beckman Coulter Kit Immunotech, ref. IM 11121. IC—Results Choice of Medium
The formulated cell product was tested for functionality by the TNF release test at different time points to evaluate its stability.

CC(O)(CBr)CCOP(=O)(O)OP(=O)(O)O (stereo not shown) [BrHPP, 3-(bromomethyl)-3-butanol-1-yl-diphosphate]
TNF alpha production (pg/ml) on 25,000 cells (cells of donor D623 from fresh MNC): 1332.7 pg/mL
TNF alpha production (pg/ml) on 25,000 cells (cells of donor D623 from frozen MNC): 1442.36 pg/mL
TNF alpha production (pg/ml) on 25,000 cells (cells of donor D711 from fresh MNC): 903.3 pg/mL
TNF alpha production (pg/ml) on 25,000 cells (cells of donor D711 from frozen MNC): 1336.16 pg/mL
TNF alpha production (pg/ml) on 25,000 cells (cells of donor D762 from fresh MNC): 782.08 pg/mL
TNF alpha production (pg/ml) on 25,000 cells (cells of donor D762 from frozen MNC): 973.7 pg/mL
Pg/ml of alpha TNF produced by 25 000 cells (T = 2 h after formulation): 381.358 pg/mL
Pg/ml of alpha TNF produced by 25 000 cells (T = 4 h after formulation): 359.624 pg/mL
Pg/ml of alpha TNF produced by 25 000 cells (T = 8 h after formulation): 327.31 pg/mL
Pg/ml of alpha TNF produced by 25 000 cells (T = 22 h after formulation): 127.56 pg/mL
